Several values for one entry are separate records, joined by “and”; a condition that tells them apart may be missing. Equal values may be shown once. Read-outs that look alike come from different tables or passages of the source.
Assays:
[1] = tested on: IL-1β production in rat primary microglia; assay: LPS-induced IL-1β production (ELISA) in rat primary microglia; assay type: cell-based
Method: Determination of TNF-α and IL-1β in culture supernatants Cells were stimulated with LPS in serum-free media for 24 h in the presence or absence of forskolin or rolipram, and concentrations of TNF-α and IL-1β were measured in culture supernatants by using high-sensitivity enzyme-linked immunosorbent assay (R&D Systems, USA) according to the manufacturer's instructions.

[2] = tested on: IL-6 production in rat primary microglia; assay: LPS-induced IL-6 production (ELISA) in rat primary microglia; assay type: cell-based
[3] = tested on: IL-6 production in rat macrophages; assay: LPS-induced IL-6 production (ELISA) in rat macrophages; assay type: cell-based
[4] = tested on: control human skin fibroblasts; assay: β-oxidation of lignoceric acid in control human skin fibroblasts; assay type: cell-based
[5] = tested on: cultured skin fibroblasts of X-ALD; assay: β-oxidation of lignoceric acid in cultured skin fibroblasts of X-ALD; assay type: cell-based, human
iNOS [6] = assay: Expression of iNOS protein (immunoblot) and mRNA (Northern) in rat primary astrocytes; assay type: cell-based
In short: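 Cells incubated 24 h with or without stimuli (cytokines or LPS). iNOS protein detected by immunoblot with anti-mouse macrophage iNOS antibody and [^125I]-protein A. Northern blot: 20 μg total RNA hybridised at 68° C with ^32P-cDNA probe; iNOS mRNA quantified densitometrically relative to GAPDH rehybridisation.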

[7] = tested on: conversion of pro-p21^ras to mature-p21^ras; conditions: Sinensky et al., 1991; read-out: IC50 for inhibition of conversion of pro-p21^ras to mature-p21^ras; cited from earlier work
iNOS [8] = assay: Immunofluorescence of iNOS in brain sections of EAE rats; assay type: in vivo, Lewis rats
Method: (§1) One group of animals induced for EAE was left untreated while another group of animals was not induced for EAE and used as the control group.
(§2) Immunohistochemistry Brains were fixed in 10% buffered formalin (Stephens Scientific, Riverdale, N.J.). The tissues were embedded in paraffin and sectioned at 4 μm. Sections were then stained for various cytokines and cell markers as described below. For single-label immunohistochemistry, sections were incubated with either anti-iNOS antibody (1:100, rabbit polyclonal, Calbiochem, LaJolla, Calif.) or anti-TNF-α antibody (1:100, rabbit polyclonal, Genzyme, Cambridge, Mass.) or anti-IFN-γ antibody (1:200, rabbit polyclonal, Biosource International, Camarillo, Calif.) essentially as described for other antibodies (Hooper et al., 1997). The tissue sections were further incubated with FITC conjugated anti-rabbit IgG (1:100, Sigma, St. Louis, Mo.), mounted with mounting media (EMS) and analyzed by immunofluorescence microscopy (Olympus) using Adobe photoshop software. For immunofluorescent double-labeling, sections were incubated first with anti-iNOS (1:100) followed by macrophage marker ED1 (1:100, mouse monoclonal, Biosource International, Camarillo, Calif.). Anti-iNOS was visualized using TRITC conjugated anti-rabbit IgG—(1:100, Sigma, St. Louis, Mo.) and ED1 using FITC conjugated anti-mouse IgG (1:100, Sigma, St. Louis, Mo.). […]

TNF-α = assay type: in vivo, Lewis rats
Method: as §1, §2

[9] = Microglia, 10 μM lovastatin or 5 mM NaPA 8 h, then LPS 1.0 μg/ml, 24 h
[10] = daily i.p. treatment from day 1

CC[C@H](C)C(=O)O[C@H]1C[C@@H](C)C=C2C=C[C@H](C)[C@H](CC[C@@H]3C[C@@H](O)CC(=O)O3)[C@H]21 [Lovastatin]
Production of IL-1β [1, 9]: 2.1 ± 0.3 ng/24 h/mg protein | Production of IL-6 [2, 9]: 7.8 ± 1.1 ng/24 h/mg protein | Production of IL-6 ([3]; Macrophages, 10 μM lovastatin or 5 mM NaPA 8 h, then LPS 1.0 μg/ml, 24 h): 8.3 ± 0.6 ng/24 h/mg protein | Lignoceric acid β-oxidation ([4]; 72 h, Lovastatin 5 μM, Mevastatin 5 μM, NaPA 5 mM, Control 570.2 ± 52.3): 945.7 ± 105.6 pmol/h/mg protein | stimulation of lignoceric acid β-oxidation ([5]; 72 h, lovastatin 5 μM, NaPA 5 mM (highest doses found to stimulate)): 70% | Lignoceric acid β-oxidation ([5]; ALDS2, 15 days, 5 μM lovastatin, 5 mM NaPA or the combination of 2 μM lovastatin and 2 mM NaPA, Control 142.7 ± 15.7): 223.5 ± 24.1 pmol/h/mg protein | Lignoceric acid β-oxidation ([5]; ALDS2, 15 days, 5 μM lovastatin, 5 mM NaPA or the combination of 4 μM forskolin and 2 mM NaPA, Control 142.7 ± 15.7): 223.5 ± 24.1 pmol/h/mg protein | Lignoceric acid β-oxidation ([5]; ALDS3, 15 days, 5 μM lovastatin, 5 mM NaPA or the combination of 2 μM lovastatin and 2 mM NaPA, Control 122.3 ± 11.7): 201.3 ± 22.3 pmol/h/mg protein | Lignoceric acid β-oxidation ([5]; ALDS3, 15 days, 5 μM lovastatin, 5 mM NaPA or the combination of 4 μM forskolin and 2 mM NaPA, Control 122.3 ± 11.7): 201.3 ± 22.3 pmol/h/mg protein | Lignoceric acid β-oxidation ([5]; ALDS4, 15 days, 5 μM lovastatin, 5 mM NaPA or the combination of 2 μM lovastatin and 2 mM NaPA, Control 118.5 ± 12.6): 192.8 ± 20.5 pmol/h/mg protein | Lignoceric acid β-oxidation ([5]; ALDS4, 15 days, 5 μM lovastatin, 5 mM NaPA or the combination of 4 μM forskolin and 2 mM NaPA, Control 118.5 ± 12.6): 192.8 ± 20.5 pmol/h/mg protein | Lignoceric acid β-oxidation ([5]; ALDS5, 15 days, 5 μM lovastatin, 5 mM NaPA or the combination of 2 μM lovastatin and 2 mM NaPA, Control 154.2 ± 14.2): 248.2 ± 26.2 pmol/h/mg protein | Lignoceric acid β-oxidation ([5]; ALDS5, 15 days, 5 μM lovastatin, 5 mM NaPA or the combination of 4 μM forskolin and 2 mM NaPA, Control 154.2 ± 14.2): 248.2 ± 26.2 pmol/h/mg protein | Lignoceric acid β-oxidation ([5]; ALDS6, 15 days, 5 μM lovastatin, 5 mM NaPA or the combination of 2 μM lovastatin and 2 mM NaPA, Control 132.4 ± 15.9): 218.3 ± 19.8 pmol/h/mg protein | Lignoceric acid β-oxidation ([5]; ALDS6, 15 days, 5 μM lovastatin, 5 mM NaPA or the combination of 4 μM forskolin and 2 mM NaPA, Control 132.4 ± 15.9): 218.3 ± 19.8 pmol/h/mg protein | LPS-mediated induction of iNOS protein and mRNA (iNOS [6]; LPS 1.0 μg/ml): significantly inhibited the LPS-mediated induction of iNOS protein and mRNA | IC50 [7]: 2600 nM

CC(=O)N[C@@H](CS)C(=O)O [NAC, N-acetyl cysteine]
expression of iNOS in EAE brain (iNOS [8]; [10]): blocked the ability of MBP to induce the expression of iNOS | expression of TNF-α in EAE brain (TNF-α; [10]): blocked the induction of TNF-α

O=C([O-])Cc1ccccc1.[Na+] [NaPA, sodium salt of phenylacetic acid]
Production of IL-1β [1]: 2.4 ± 0.2 ng/24 h/mg protein | Production of IL-6 [2]: 9.3 ± 1.2 ng/24 h/mg protein | Production of IL-6 [3]: 10.2 ± 1.4 ng/24 h/mg protein | Lignoceric acid β-oxidation [4]: 826.2 ± 87.2 pmol/h/mg protein | Lignoceric acid β-oxidation [5]: 211.5 ± 22.6 pmol/h/mg protein and 189.7 ± 21.2 pmol/h/mg protein and 183.2 ± 17.3 pmol/h/mg protein and 178.9 ± 18.3 pmol/h/mg protein and 202.5 ± 17.4 pmol/h/mg protein | stimulation of lignoceric acid β-oxidation [5]: 40% | expression of iNOS in EAE brain (iNOS [8]; rat, in vivo, ip): blocked the ability of MBP to induce the expression of iNOS | expression of TNF-α in EAE brain (TNF-α; rat, in vivo, ip): blocked the induction of TNF-α | LPS-mediated induction of iNOS protein and mRNA (iNOS [6]): significantly inhibited the LPS-mediated induction of iNOS protein and mRNA
